Test results: US7405063B2, “Biooxidation capabilities of Candida sp” (Cognis Corporation, priority 2000, dated 2008)
Like-named read-outs stand apart in the source and are kept apart here.

Columns and labels:
C. tropicalis = experiment: Toxicity tests of additional substrates (absorbance at 600 nm); assay type: cell-based; conditions: 24 hours, added without solvent
Method: Additional substrates were to be tested for bioconversion following a slightly different protocol than the one noted above in Example 3. Those substrates also had to be tested for toxicity similar to the test described in Example 2, to determine the highest concentration at which a substrate could be added to a culture broth without being toxic, inhibiting growth, or interfering with the bioconversion process. C. tropicalis was grown in the presence of the substrate at three different concentrations and growth was monitored spectrophotometrically. In contrast to Example 2, all test substrates were added directly to the culture medium without dissolving in solvent. The tests were completed as follows:
On the first day, H5343 was grown in YPD medium (25.0 ml seed culture) overnight on a rotary shaker at 30° C. and 250 rpm. The next day 1.0 ml of the seed culture was used to inoculate a new flask of 50 ml YPD. This culture was grown overnight on a rotary shaker at 30° C. and 250 rpm. […]
Two control flasks were each inoculated with H5343 in 25 ml YPD. All flasks were incubated on a rotary shaker at 30° C. and 250 rpm.
After 24 hours incubation, the absorbance at 600 nm of the test and control flask cultures was determined, using uninoculated YPD broth as blank. Cultures were diluted so that the OD^600 nm measured between 0.15 and 0.3.
For strongly inhibitory substrates, a concentration of 0.1-0.2% was chosen for the bioconversion tests.

[1] = tested on: C. tropicalis strain H5343; experiment: Toxicity tests of substrates (growth by absorbance at 600 nm, streak plates); assay type: cell-based; conditions: 48 h, 30° C., dilution in YPD 1:100
Method: The toxicity test used here was similar to that used for the solvents described in Example 1. The goal was to determine the highest concentration at which a substrate could be added to a culture broth without being toxic, inhibiting growth, or interfering with the bioconversion process. C. tropicalis strain H5343 was grown in the presence of the substrate at different concentrations and growth was monitored spectrophotometrically. In order to determine if the substrate was lethal or was simply inhibiting growth, the cultures were examined under the microscope and streak plates of YPD and LB agar were prepared. Contamination of the culture with an unwanted organism could also be detected using this approach.
6 ml was transferred to the first tube and 3 ml to the rest. 1% substrate was added to the first tube and then serially diluted to give concentrations from 1% to 0.015%. Since the last tube was initially empty, the concentration in the last two tubes was the same. […] As a growth-control one culture without substrate was inoculated.
To determine if contamination had occurred, each culture was examined under the microscope and streak plates of both YPD and LB were made from the 1% and the inoculated 0.015% tube.

[2] = tested on: C. tropicalis strain H5343; conditions: for nontoxic concentration of solvent: growth of strain H5343; for ABS Lambda = 600.0 nm: 24 h, 30° C., dilution in YPD 1:100

| SMILES | Absorbance at 600 nm (C. tropicalis; substrate concentration 0.1%) | Absorbance at 600 nm (C. tropicalis; substrate concentration 0.5%) | Absorbance at 600 nm (C. tropicalis; substrate concentration 1.0%) | ABS 600.0 nm ([1]; substrate concentration 0.01563%) | ABS 600.0 nm ([1]; substrate concentration 0.0313%) | ABS 600.0 nm ([1]; substrate concentration 0.063%) | ABS 600.0 nm ([1]; substrate concentration 0.13%) | ABS 600.0 nm ([1]; substrate concentration 0.25%) | ABS 600.0 nm ([1]; substrate concentration 0.5%) | ABS 600.0 nm ([1]; substrate concentration 1%) | nontoxic concentration of solvent [2] [%] | ABS Lambda = 600.0 nm ([2]; solvent concentration 0.25%) | ABS Lambda = 600.0 nm ([2]; solvent concentration 0.5%) | ABS Lambda = 600.0 nm ([2]; solvent concentration 1%) | ABS Lambda = 600.0 nm ([2]; solvent concentration 2%) | ABS Lambda = 600.0 nm ([2]; solvent concentration 4%) |
| --- | --- | --- | --- | --- | --- | --- | --- | --- | --- | --- | --- | --- | --- | --- | --- | --- |
| CCCCCCCCC(CO)CCCCCC (stereo not shown) [2-Hexyl-1-decanol] | 24.43 | 19.73 | 11.93 | 0.120 | 0.145 | 0.110 | 0.273 | 0.145 | 0.122 | 0.117 | – | – | – | – | – | – |
| CC(C)=O [Acetone] | – | – | – | – | – | – | – | – | – | – | ≤ 4 | 0.123 | 0.183 | 0.111 | 0.149 | 0.087 |
| CCCCCCC(CO)CCCC (stereo not shown) [2-Butyl-1-octanol] | 10.53 | 8.973 | 6.213 | – | – | – | – | – | – | – | – | – | – | – | – | – |
| CCO [Ethanol] | – | – | – | – | – | – | – | – | – | – | 4 | 0.122 | 0.104 | 0.137 | 0.119 | 0.090 |
| CCCCCC [Hexane] | – | – | – | – | – | – | – | – | – | – | 2 | 0.119 | 0.148 | 0.119 | 0.126 | 0.005 |
| CCCC1CCCCC1 [Propylcyclohexane] | 44.13 | 34.12 | 1.201 | – | – | – | – | – | – | – | – | – | – | – | – | – |
